Measurements reported in patent publication US20210293788A1, “METHOD FOR IDENTIFYING A CHEMICAL COMPOUND OR AGENT INDUCING UBIQUITINATION OF A PROTEIN OF INTEREST” (CeMM - Forschungszentrum fur Molekulare Medizin GmbH, priority 2018, published 2021).
Entries after “also recorded” stand apart in the source; their conditions may differ.

Tests used:
KBM7 cells = test: Dose-ranging cellular viability assays in neddylation-impaired isogenic KBM7 cells; type: cell-based, human
Procedure: KBM7 cells mutated for five core genes were isolated and the underlying CRISPR-induced mutations were truncations leading to full knockouts (CAND1) or hypomorphic alleles (UBE2M, COPS8, COPS7B, GPS1). […] The observable shift in efficacy was at least 10-fold and up to 1000-fold, thus providing excellent signal to noise ratios. In sum, neddylation-impaired (NEDD^mut) cell line can be applied to find novel, yet uncharacterized MGs.
This is further exemplified when said cells are treated with the compound CC-885 (a molecular glue that reprograms the substrate receptor cereblon/CRBN to degrade GSPT1), or the PROTAC® compound THAL-SNS-032 (known to reprogram the substrate receptor cereblon/CRBN to degrade the cyclin dependent kinase 9, CDK9) (both see appended FIG. 22).
However, not for every cullin RING ligase (CRL), modifications of the COP9 signalosome subunit 8 (COPS8) or CAND1 (Cullin-associated NEDD8-dissociated protein 1; a substrate receptor exchange factor) lead to an ensuing destabilization via auto-degradation. An example for this is the substrate receptor VHL(von-Hippel-Lindau), which is part of the CRL2^VHL ligase complex. […] Therefore, measuring differential sensitivity of cells manipulated to contain altered neddylation states to a molecular glue/PROTAC® compound is a feasible surrogate to measure whether the substrate receptor that is reprogrammed by said molecular glue/PROTAC® undergoes destabilization/auto-degradation upon altering the neddylation states.

DCAF15 [1] = biological target: T1, DCAF15 (Homo sapiens, UniProt Q66K64); test: DCAF15 HiBit/LgBit luciferase assay (knock-in or ectopic, live-cell or lytic detection); type: cell-based
T1 construct: expressed in transfected cells
T1 sequence (Q66K64 whole entry): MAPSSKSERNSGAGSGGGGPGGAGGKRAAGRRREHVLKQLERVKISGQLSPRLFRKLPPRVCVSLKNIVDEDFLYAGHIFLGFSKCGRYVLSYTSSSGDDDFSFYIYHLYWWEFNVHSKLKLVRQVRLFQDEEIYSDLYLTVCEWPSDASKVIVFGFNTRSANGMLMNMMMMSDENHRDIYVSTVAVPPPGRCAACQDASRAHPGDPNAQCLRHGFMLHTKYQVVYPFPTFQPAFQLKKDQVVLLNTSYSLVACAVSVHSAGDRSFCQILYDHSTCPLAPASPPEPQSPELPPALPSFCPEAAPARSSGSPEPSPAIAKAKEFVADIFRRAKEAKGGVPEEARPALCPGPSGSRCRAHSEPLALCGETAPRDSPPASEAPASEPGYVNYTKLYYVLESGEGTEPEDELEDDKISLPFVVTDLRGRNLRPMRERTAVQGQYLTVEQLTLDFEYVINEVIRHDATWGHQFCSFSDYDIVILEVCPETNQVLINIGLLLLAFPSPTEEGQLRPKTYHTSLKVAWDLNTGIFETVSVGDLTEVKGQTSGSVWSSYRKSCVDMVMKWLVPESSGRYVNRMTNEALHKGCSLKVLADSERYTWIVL
Procedure: Generation of HiBit DCAF15 knock-in cells: HEK293t WT cells at 70-80% confluency were transiently transfected in a 6 well plate with a mix of 3 ug Cas9-sgRNA vector (PX458, addgene #48138, containing sgRNA [NT]), 6 ug of single stranded oligonucleotide donor (ssOND, 20 bp homology flanking the cut site) and 3.6 ug polyethylenimine (FIGS. 10 and 12). 72 hrs post-transfection cells were sorted (SH800 Cell sorter, SONY) for GFP positive cells and recovered for 24 hrs in media. Cells were subsequently seeded at a limiting dilution to generate single clones. Clones were tested after outgrowth for HiBit expression by seeding clonal cells in a black clear bottom 384 well plate and adding Nano-Glo HiBit Lytic buffer (Promega, N3030) reconstituted with recombinant LgBit and Nano-Glo HiBit Lytic Substrate in a 1:1 ratio. HiBit-expressing clones were validated by western blotting and detection of luciferase signal (Promega, N2410) at the correct size. For live cell luciferase detection (FIGS. 11 and 13) 7000 HEK293t cells with a HiBit knock-in at the N-terminus of DCAF15 and stable ectopic expression of LgBit were seeded in 10 uL per well into a black, clear-bottom 384 well plate (Corning, #3764) and incubated over night. 20 uL of media containing 1× Endurazine (Promega, N2570) was added to each well and incubated for 1 hour followed by a baseline luciferase measurement using an EnVision plate reader (Perkin Elmer). Subsequently CSN5i-3 or an equal volume of DMSO was added in 10 uL of media to a final concentration of 500 nM in the assay volume of 40 uL. Luciferase signal was measured hourly for 24 hours. For lytic HiBit detection (FIGS. 11 and 14) 10000 cells were seeded in 10 uL per well into a black clear bottom 384 well plate. After recovery cells were treated by addition of iCSN5-3 or an equal volume of DMSO in 10 uL of media to the cells. After the indicated treatment time cells were lysed by adding 20 uL Nano-Glo HiBit Lytic buffer (Promega, N3030) reconstituted with recombinant LgBit and Nano-Glo HiBit Lytic Substrate. Luciferase signal of each well was normalized to the mean DMSO luciferase signal yielding fold-change over DMSO. Luciferase signal was detected essentially as stated for FIG. 13 with the exception that indisulam (Sigma-Aldrich, SML1225) was added together with CSN5i-3 to cells in 10 uL of media to reach the indicated final concentration (FIG. 15). Luciferase signal of each well and timepoint was normalized to the mean DMSO luciferase signal yielding fold-change over DMSO. […] Luciferase signal was detected essentially as stated for FIG. 15 with the exception that indisulam and dCEMM.1 were added together with iCSN5-3 to cells in the 10 uL treatment to a final concertation of 10 uM (FIG. 17). Luciferase signal of each well and timepoint was normalized to the mean DMSO luciferase signal yielding fold-change over DMSO.

DCAF15 [2] = biological target: T1, DCAF15; test: High-throughput screen for DCAF15 stabilization in 293T cells expressing DCAF15 HiBit fusion; type: cell-based; settings: 10 uM, 384 well, measurements every 120 minutes
Description: Subsequently, in this context, the E3 ligase substrate receptor (SR) stabilization approach was employed in order to identify novel chemical matter that can bind and chemically re-program the substrate receptor DCAF15. To be able to screen a collection of around 8000 small-molecules, a cellular system was developed that enabled monitoring of DCAF15 levels in live cells in multi-well format. To that end, DCAF15 was first knocked out in 293T cells via CRISPR/Cas9 technology. Then, DCAF15 was stably expressed as a HiBit® fusion protein in these cells. After further transducing these cells with LgBit, this allowed live-cell tracing of DCAF15 levels in 384 well format by measuring bioluminescence (FIG. 18). In brief, cells were seeded at a concentration of 250′000 cells/ml in DMEM+10% FCS+25 mM Hepes. The luciferase substrate Endurazine was added at concentrations recommended by the manufacturer. Small-molecules were added at a concentration of 10 uM, and their effect on DCAF15 levels was assayed by continuous bioluminescent imaging (measurements were taken every 120 minutes). […] The known DCAF15 molecular glue indisulam (see FIG. 7) was used as a positive control. In brief, indisulam is known to act as a DCAF15-dependent molecular glue that binds DCAF15 and induced proximity between DCAF15 and RBM39, leading to the degradation of the latter.

RBM39 [3] = biological target: T2, RBM39 (Homo sapiens, UniProt Q14498+Q66K64); test: Western blot of RBM39 levels in KBM7 WT versus DCAF15-deficient cells; type: cell-based; set-up: endogenous in cells; settings: 12 or 16 h treatment
Procedure: (§1) Given the structural similarity to indisulam, it was assayed if the two new test compounds would similarly lead to the degradation of RBM39 in a DCAF15-dependent manner. Towards that end, their effect on RBM39 levels in wildype cells as well as cells deficient for DCAF15 levels was tested. KBM7 (WT or knockout, FIG. 20) as well as 293T cells (DCAF15-HiBit overexpression vs knockout, see FIG. 21) were tested in various conditions of dCEMM.1 and/or dCEMM.2, comparing their effect to indisulam.

RBM39 [4] = biological target: T2, RBM39; test: Western blot of RBM39 levels in 293T DCAF15 KO versus DCAF15-reconstituted cells; type: cell-based; set-up: endogenous in cells; host or cells: 293T DCAF15 KO and 293T reconstituted with tagged DCAF15; settings: 293T cells reconstituted with tagged DCAF15, 10 h treatment
Procedure: as §1

Question: NS(=O)(=O)c1ccc(S(=O)(=O)Nc2cccc3c(Cl)c[nH]c23)cc1 [indisulam] was tested. Which “Cytotoxic activity / sensitivity in COPS8- or CAND1-modified cells” value (KBM7 cells; KBM7 cells modified in COPS8 or CAND1 versus non-modified control) did it give?
Answer: resistance to indisulam in both genetic backgrounds; also recorded: reduced activity

Question: And the “Resistance of mutant cells in cellular viability assay” value (KBM7 cells; KBM7 cells mutated in CAND1, UBE2M, COPS8, COPS7B or GPS1 versus wild type)?
Answer: caused resistance

Question: And the “DCAF15 re-stabilization (luciferase, fold-change over DMSO)” value (DCAF15 [1]; HiBit knock-in live cells, added together with CSN5i-3 (FIG. 15))?
Answer: rescues DCAF15 from auto-degradation; also recorded: DCAF15 re-stabilization

Question: What about the “DCAF15 re-stabilization (luciferase, fold-change over DMSO)” value (DCAF15 [1]; live cells, 10 uM, added together with CSN5i-3 (FIG. 17)) of the same compound?
Answer: rescues DCAF15 from auto-degradation; also recorded: DCAF15 re-stabilization

Question: And the “DCAF15 stabilization (relative luciferase signal over time)” value (DCAF15 [2])?
Answer: pronounced stabilization of DCAF15 over time; also recorded: identified as positive hits; also recorded: significant stabilization of DCAF15 over time

Question: And the “RBM39 levels (western blot)” value (RBM39 [3])?
Answer: destabilization

Question: What about the “RBM39 levels (western blot)” value (RBM39 [4]) of the same compound?
Answer: destabilization
